Results on four compounds are retold here after patent publication US20200397700A1, “GRANULAR COMPOSITION, PRODUCTION METHOD FOR GRANULAR COMPOSITION, AND DISSOLUTION PROPERTY IMPROVEMENT METHOD FOR GRANULAR COMPOSITION” (NIPPON SHINYAKU CO., LTD., priority 2018, published 2020).

The nature of the data set: Dissolution test, Japanese Pharmacopoeia 17th Edition, paddle method, water. Type of data set: physicochemical. The conditions noted are these: for dissolution rate of the mixture with an excipient after compression molding versus the mixture not compression molded: drug mixed with an excipient, compression molded in the same manner as in this embodiment. Here is the method: With respect to the granular compositions of Examples 1 to 8, and Comparative Examples 1 to 8 prepared as described above, a dissolution test was performed. The dissolution test was performed according to the dissolution test method of the Japanese Pharmacopoeia, Seventeenth Edition. By using a dissolution testing device (NTR-6000 series, manufactured by Toyama Sangyo Co., Ltd.), the dissolution test was performed by a paddle method using water as a dissolution test liquid. At this time, the volume of the dissolution test liquid was set to 900 mL, the temperature of the dissolution test liquid was set to 37 ±0.5° C., and the paddle rotation rate was set to 50 rpm. With respect to the respective Examples and the respective Comparative Examples, the total amount was added to the dissolution test liquid, and the dissolution test liquid was sampled at 5, 10, 15, 30, 45, 60, 90, and 120 minutes after the start of the test, and filtered through a 0.45-μm filter (manufactured by Whatman GE Healthcare Biosciences), and then, the dissolution rate of Compound (I) was measured using high performance liquid chromatography.
FIGS. 5 to 9 show the time course of the dissolution rate of Compound (I) in the granular compositions of Examples 1 to 5, respectively, and also show the time course of the dissolution rate of Compound (I) in Comparative Examples 1 to 5, respectively. […] In FIGS. 5 to 11, the vertical axis represents the dissolution rate (unit: %) and the horizontal axis represents a time (unit: min). The solid lines E1 to E8 represent the cases of Examples 1 to 8, respectively, and the broken lines C1 to C8 represent the cases of Comparative Examples 1 to 8, respectively.

Molecules are shown by their SMILES. Where a name gives a salt, the structure may show the parent alone.

For the compound `CCN(CC)C(=O)Nc1ccc(OCC(O)CNC(C)(C)C)c(C(C)=O)c1` (stereo not shown) [celiprolol hydrochloride], the “dissolution rate of the mixture with an excipient after compression molding versus the mixture not compression molded” value is reported as “substantially equivalent”.

On to `CC(C)N(CCCCOCC(=O)NS(C)(=O)=O)c1cnc(-c2ccccc2)c(-c2ccccc2)n1` [Compound (I), 2-{4-[N-(5,6-diphenylpyradin-2-yl)-N-isopropylamino]butyloxy}-N-(methylsulfonyl)acetamide], for which, for the setting “in a granule obtained by a fluidized bed granulation method”, the “dissolution property of Compound (I)” value was “low”.

On to `COc1ccc2c(c1)c(CC(=O)O)c(C)n2C(=O)c1ccc(Cl)cc1` [indomethacin], for which the “dissolution rate of the mixture with an excipient after compression molding versus the mixture not compression molded” value was “substantially equivalent”.

For `CC(=O)Nc1ccc(O)cc1` [acetaminophen], the “dissolution rate of the mixture with an excipient after compression molding versus the mixture not compression molded” value was “substantially equivalent”.
